Consider 25 compounds from ChEMBL document CHEMBL3259599, “Novel colchicine-site binders with a cyclohexanedione scaffold identified through a ligand-based virtual screening approach” (J Med Chem, 2014).

One assay relates to HeLa. Briefly: Antiproliferative activity against human HeLa cells after 4 days by coulter counter analysis. The following applies: 96 h. Format: functional, cell-based.
Assay [1] in a line: Antiproliferative activity against MBEC after 3 days by coulter counter analysis. The format is functional, Mus musculus.
Assay [2] in a line: Antiproliferative activity against HMEC1 after 4 days by coulter counter analysis. Format: functional. The following applies: Homo sapiens, HMEC-1, 96 h.
Assay [3] in a line: Antiproliferative activity against BAEC after 3 days by coulter counter analysis. The format is functional. The following applies: Bos taurus, 72 h.
Another assay relates to CCRF-CEM. Kind of assay: Antiproliferative activity against human CEM cells after 48 to 96 hrs by coulter counter analysis. Format: functional, cell-based.
Another assay deals with L1210. Briefly: Antiproliferative activity against mouse L1210 cells after 48 to 96 hrs by coulter counter analysis. Format: functional, cell-based.

As usually defined, the IC50 is the point on the concentration scale where inhibition reaches its midpoint. Read a high IC50 as weaker potency in that assay.

`COc1ccc(OC)c(NC(C)=C2C(=O)CC(c3ccccc3)CC2=O)c1` (stereo not given): the IC50 is 46 µM in the assay with HeLa; 3.2 µM in assay [1]; 2.6 µM in assay [2]; 2.6 µM in assay [3]; above 6 µM in the assay on CCRF-CEM; 36 µM with L1210.
For the compound `COc1ccccc1NC(C)=C1C(=O)CC(c2ccccc2C)CC1=O` (stereo not given), the IC50 with HeLa is 13 µM; in assay [1], 6.8 µM; in assay [2], 5.8 µM; in assay [3], 3.2 µM; in the assay on CCRF-CEM it was 7.2 µM; in the assay with L1210, 11 µM.
For the compound `CCCC(Nc1ccccc1C)=C1C(=O)CC(c2ccccc2)CC1=O` (stereo not given), the IC50 with HeLa was above 100 µM; in assay [1], 47 µM; in assay [2], 44 µM; in assay [3] it was 46 µM; with CCRF-CEM it was at least 100 µM; in the assay on L1210 it was 41 µM.
For the compound `CC(Nc1ccccc1C)=C1C(=O)CC(c2cccc(O)c2)CC1=O` (stereo not given), the IC50 in the assay on HeLa worked out at 4.1 µM; in assay [1] it was 2.5 µM; in assay [2], 2.2 µM; in assay [3] it was 2.1 µM; in the assay with CCRF-CEM, 6.2 µM; with L1210, 3.5 µM.
Regarding `COc1ccccc1NC(C)=C1C(=O)CC(Cc2ccccc2)CC1=O` (stereo not given), the IC50 in the assay with HeLa is above 100 µM; in assay [1] it was 87 µM; in assay [2], 22 µM; in assay [3], above 100 µM; with CCRF-CEM it was above 100 µM; in the assay with L1210 it was above 100 µM.
As to `COc1ccccc1NC(C)=C1C(=O)CC(c2ccc(F)cc2)CC1=O` (stereo not given), the 50% inhibitory concentration (IC50) with HeLa is 4 µM; in assay [1], 2.1 µM; in assay [2], 1.8 µM; in assay [3], 1.7 µM; in the assay on CCRF-CEM, 5.3 µM; with L1210, 3.3 µM.
Turning to `CC(Nc1cccc(F)c1F)=C1C(=O)CC(c2ccccc2)CC1=O` (stereo not given), the IC50 with HeLa was 36 µM; in assay [1], 12 µM; in assay [2] it was 10 µM; in assay [3], 14 µM; in the assay on CCRF-CEM, 25 µM; in the assay with L1210, 19 µM.
In the case of `CC(Nc1ccccc1Cl)=C1C(=O)CC(c2ccccc2)CC1=O` (stereo not given), the half-inhibitory concentration (IC50) in the assay on HeLa turned out to be 0.71 µM; in assay [1], 0.47 µM; in assay [2], 0.56 µM; in assay [3], 0.29 µM; with CCRF-CEM, 0.64 µM; with L1210, 0.7 µM.
Consider `COc1ccc(C2CC(=O)C(=C(C)Nc3ccccc3OC)C(=O)C2)cc1` (stereo not given), for which the IC50 (in the assay on HeLa; in assay [1]; in assay [2]; in assay [3]; in the assay on CCRF-CEM; in the assay with L1210) was above 100 µM each time.
Regarding `CCC(Nc1cc(OC)c(OC)c(OC)c1)=C1C(=O)CC(c2ccccc2)CC1=O` (stereo not given), the IC50 (in the assay on HeLa; in assay [1]; in assay [2]; in assay [3]; in the assay with CCRF-CEM; with L1210) was above 100 µM in each case.
Regarding `COc1ccccc1NC(C)=C1C(=O)CC(c2ccc(C)cc2)CC1=O` (stereo not given), the IC50 was 90 µM with HeLa; 9.2 µM in assay [1]; 11 µM in assay [2]; 8.4 µM in assay [3]; above 100 µM in the assay with CCRF-CEM; above 100 µM in the assay with L1210.
With `CCC(Nc1cccc(OC)c1)=C1C(=O)CC(c2ccccc2)CC1=O` (stereo not given), the IC50 in the assay with HeLa was determined as 66 µM; in assay [1] it was 16 µM; in assay [2] it was 18 µM; in assay [3], 64 µM; in the assay with CCRF-CEM, 45 µM; in the assay with L1210 it was 32 µM.
Take `CCC(Nc1ccc(O)cc1)=C1C(=O)CC(c2ccccc2)CC1=O` (stereo not given): the IC50 with HeLa is 79 µM; in assay [1], 18 µM; in assay [2], 28 µM; in assay [3], 36 µM; with CCRF-CEM, 34 µM; in the assay with L1210, 14 µM.
With `CC(Nc1c(F)cccc1F)=C1C(=O)CC(c2ccccc2)CC1=O` (stereo not given), the IC50 in the assay on HeLa stood at 17 µM; in assay [1] it was 9.2 µM; in assay [2], 6.6 µM; in assay [3], 8.4 µM; in the assay with CCRF-CEM it was 21 µM; in the assay on L1210 it was 11 µM.
As to `COc1ccccc1NC(C)=C1C(=O)CC(c2ccccc2F)CC1=O` (stereo not given), the IC50 is 4.8 µM in the assay with HeLa; 5.4 µM in assay [1]; 4.3 µM in assay [2]; 2.7 µM in assay [3]; 4.9 µM with CCRF-CEM; 6.3 µM in the assay on L1210.
For `COc1ccccc1NC(C)=C1C(=O)CC(c2cccc(C)c2)CC1=O` (stereo not given), the IC50 with HeLa is 0.79 µM; in assay [1], 0.42 µM; in assay [2], 0.33 µM; in assay [3], 0.26 µM; in the assay on CCRF-CEM, 0.31 µM; with L1210, 0.17 µM.
Regarding `COc1cccc(OC)c1NC(C)=C1C(=O)CC(c2ccccc2)CC1=O` (stereo not given), the IC50 turned out to be 1.1 µM in the assay on HeLa; 1.2 µM in assay [1]; 1.4 µM in assay [2]; 0.46 µM in assay [3]; 1.4 µM in the assay with CCRF-CEM; 1 µM with L1210.
As to `COc1ccccc1NC(C)=C1C(=O)CC(c2c(F)cccc2F)CC1=O` (stereo not given), the IC50 with HeLa is above 100 µM; in assay [1], 60 µM; in assay [2] it was 39 µM; in assay [3], above 100 µM; with CCRF-CEM, above 100 µM; with L1210, above 100 µM.
`CCC(Nc1ccccc1)=C1C(=O)CC(c2ccccc2)CC1=O` (stereo not given): the IC50 in the assay on HeLa is 56 µM; in assay [1], 8.3 µM; in assay [2], 15 µM; in assay [3] it was 16 µM; in the assay on CCRF-CEM it was 21 µM; in the assay on L1210, 22 µM.
As for `CC(Nc1ccccc1F)=C1C(=O)CC(c2ccccc2)CC1=O` (stereo not given), the IC50 with HeLa was 3.4 µM; in assay [1], 1 µM; in assay [2], 0.93 µM; in assay [3] it was 0.51 µM; in the assay on CCRF-CEM, 1.1 µM; with L1210, 1.9 µM.
In the case of `CCC(Nc1cccc(O)c1)=C1C(=O)CC(c2ccccc2)CC1=O` (stereo not given), the IC50 turned out to be 75 µM in the assay on HeLa; 12 µM in assay [1]; 13 µM in assay [2]; 7.8 µM in assay [3]; 48 µM with CCRF-CEM; 15 µM with L1210.
As to `COc1ccccc1NC(C)=C1C(=O)CC(C)(C)CC1=O`, the IC50 in the assay with HeLa is above 100 µM; in assay [1], 71 µM; in assay [2], 76 µM; in assay [3], 48 µM; with CCRF-CEM, above 100 µM; in the assay with L1210 it was above 100 µM.
Turning to `COc1cccc(C2CC(=O)C(=C(C)Nc3ccccc3C)C(=O)C2)c1` (stereo not given), the IC50 in the assay on HeLa worked out at 0.66 µM; in assay [1], 0.64 µM; in assay [2], 0.67 µM; in assay [3] it was 0.48 µM; with CCRF-CEM it was 0.72 µM; in the assay with L1210, 0.26 µM.
Take `COc1ccccc1NC(C)=C1C(=O)CC(c2c(C)cccc2C)CC1=O` (stereo not given): the IC50 stood at 55 µM with HeLa; 39 µM in assay [1]; 35 µM in assay [2]; 41 µM in assay [3]; 23 µM in the assay on CCRF-CEM; 24 µM in the assay with L1210.
On to `CCC(Nc1ccc2c(c1)OCO2)=C1C(=O)CC(c2ccccc2)CC1=O` (stereo not given), for which the IC50 in the assay on HeLa was 76 µM; in assay [1], 50 µM; in assay [2], 53 µM; in assay [3] it was 43 µM; in the assay with CCRF-CEM, 53 µM; in the assay with L1210, 38 µM.
